Experimental data as given in the supplement of paper PMC10307832.

What was measured:
Assay in all cases: relative viability (nuclei count vs DMSO), 5 days (fraction); higher = more cells survive
[1] = compound: Nc1ccccc1NC(=O)c1ccc(CNC(=O)OCc2cccnc2)cc1 [Entinostat] + Cc1nc(Nc2ncc(C(=O)Nc3c(C)cccc3Cl)s2)cc(N2CCN(CCO)CC2)n1 [Dasatinib] (partner 0.075 µM)
Summary of the method: (§1)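 Cells from lung cancer lines were seeded into 1536-well plates and, one day later, dosed by pin tool. Treatments were either a single drug or a fixed dose of an anchor drug with five library-drug doses (not always all listed) in √10 steps. After 5 days, nuclei were stained in a one-step fixation (final 0.05% Triton X-100, 1% formaldehyde, 1 ug/ml Hoechst) and counted on 4× images, and relative viability is the treated-to-vehicle nuclei ratio, as the median of duplicate plates.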

[2] = compound: CN1CCC(CNc2ccc3ncc(-c4cccc(OC(F)(F)F)c4)n3n2)CC1 [SGI-1776] + CC(=O)Nc1cccc(-n2c(=O)n(C3CC3)c(=O)c3c(Nc4ccc(I)cc4F)n(C)c(=O)c(C)c32)c1 [Trametinib] (partner 0.02 µM)
Summary of the method: as §1

[3] = compound: C1COCCN1C2=NC(=NC3=C2OC4=C3C=CC=N4)C5=CC(=CC=C5)NC(=O)C6=CN=C(C=C6)N + Cc1cc(Nc2cc(N3CCN(C)CC3)nc(Sc3ccc(NC(=O)C4CC4)cc3)n2)n[nH]1 [Tozasertib] (partner 0.1 µM)
Summary of the method: as §1

[4] = compound: CN1CCC(CNc2ccc3ncc(-c4cccc(OC(F)(F)F)c4)n3n2)CC1 [SGI-1776] + Nc1nc2[nH]cc(CCc3ccc(C(=O)N[C@@H](CCC(=O)O)C(=O)O)cc3)c2c(=O)[nH]1 [Pemetrexed] (partner 0.2 µM)
Summary of the method: as §1

Cell Line	relative viability ([1]; first compound 0.02 µM)	relative viability ([1]; first compound 0.06325 µM)	relative viability ([1]; first compound 0.2 µM)	relative viability ([1]; first compound 0.6325 µM)	relative viability ([1]; first compound 2 µM)	relative viability ([2]; first compound 0.08 µM)	relative viability ([2]; first compound 0.8 µM)	relative viability ([2]; first compound 2.53 µM)	relative viability ([2]; first compound 8 µM)	relative viability ([3]; first compound 0.02 µM)	relative viability ([3]; first compound 0.06325 µM)	relative viability ([3]; first compound 0.2 µM)	relative viability ([3]; first compound 0.6325 µM)	relative viability ([3]; first compound 2 µM)	relative viability ([4]; first compound 0.08 µM)	relative viability ([4]; first compound 0.8 µM)	relative viability ([4]; first compound 2.53 µM)	relative viability ([4]; first compound 8 µM)
NCI-H596	0.627	0.593	0.576	0.448	0.378	0.797	0.733	0.782	0.678	0.85	0.932	0.874	0.761	0.661	0.442	0.51	0.505	0.461
NCI-H647	0.197	0.133	0.144	0.0844	0.064	0.621	0.441	0.56	0.323	0.155	0.292	0.252	0.137	0.145	0.172	0.151	0.166	0.145
NCI-H650	0.496	0.498	0.455	0.357	0.26	1.09	1.01	0.965	0.869	0.769	0.766	0.737	0.799	0.513	1.02	0.91	0.949	0.841
NCI-H661	1.04	0.967	1.03	0.771	0.372	0.596	0.534	0.525	0.466	0.34	0.347	0.328	0.342	0.354	0.938	0.89	0.917	0.889
NCI-H838	0.424	0.324	0.455	0.469	0.258	0.519	0.534	0.414	0.385	0.278	0.278	0.256	0.257	0.182	0.232	0.29	0.258	0.189
NCI-H1355	0.69	0.687	0.583	0.429	0.306	0.444	0.408	0.408	0.41	0.628	0.602	0.515	0.36	0.352	1.09	1.07	1.01	1.03
NCI-H1395	0.477	0.425	0.42	0.286	0.405	1.16	0.984	0.951	0.887	0.78	0.709	0.772	0.719	0.576	0.876	0.836	0.784	0.605
NCI-H1437	0.434	0.423	0.188	0.137	0.126	0.565	0.524	0.361	0.301	0.437	0.424	0.398	0.377	0.241	0.3	0.328	0.28	0.265
NCI-H1650	0.385	0.354	0.407	0.284	0.212	0.543	0.521	0.504	0.371	0.472	0.425	0.328	0.338	0.255	0.348	0.367	0.36	0.296
NCI-H1651	0.447	0.527	0.402	0.338	0.192	0.806	0.852	0.843	0.746	0.685	0.76	0.416	0.522	0.338	0.672	0.736	0.604	0.456
NCI-H1666	0.751	0.781	0.833	0.595	0.455	0.95	0.846	0.935	0.842	0.614	0.615	0.588	0.513	0.501	0.895	0.917	0.893	0.789
NCI-H1734	0.486	0.585	0.578	0.476	0.403	0.686	0.742	0.786	0.603	0.272	0.254	0.257	0.229	0.186	0.412	0.371	0.399	0.377
NCI-H1755	0.431	0.503	0.445	0.28	0.218	0.802	0.741	0.762	0.651	0.606	0.572	0.468	0.414	0.473	0.465	0.443	0.425	0.372
NCI-H1793	0.422	0.404	0.376	0.228	0.192	0.418	0.518	0.589	0.444	0.314	0.305	0.262	0.29	0.279	0.947	1.17	0.835	0.689
NCI-H1915	0.336	0.27	0.238	0.173	0.151	0.317	0.281	0.309	0.277	0.439	0.492	0.392	0.408	0.264	0.481	0.463	0.497	0.47
NCI-H1944	0.226	0.205	0.199	0.17	0.175	0.389	0.408	0.426	0.378	0.259	0.263	0.228	0.209	0.173	0.727	0.757	0.591	0.559
NCI-H1975	0.352	0.307	0.316	0.199	0.134	0.389	0.33	0.325	0.313	0.893	0.699	0.315	0.225	0.215	0.29	0.288	0.289	0.273
NCI-H1993	0.747	0.591	0.535	0.496	0.259	0.576	0.496	0.765	0.538	0.551	0.569	0.524	0.567	0.538	0.61	0.569	0.559	0.548

Cell Line	relative viability ([1]; first compound 0.02 µM)	relative viability ([1]; first compound 0.06325 µM)	relative viability ([1]; first compound 0.2 µM)	relative viability ([1]; first compound 0.6325 µM)	relative viability ([1]; first compound 2 µM)	relative viability ([2]; first compound 0.08 µM)	relative viability ([2]; first compound 0.8 µM)	relative viability ([2]; first compound 2.53 µM)	relative viability ([2]; first compound 8 µM)	relative viability ([3]; first compound 0.02 µM)	relative viability ([3]; first compound 0.06325 µM)	relative viability ([3]; first compound 0.2 µM)	relative viability ([3]; first compound 0.6325 µM)	relative viability ([3]; first compound 2 µM)	relative viability ([4]; first compound 0.08 µM)	relative viability ([4]; first compound 0.8 µM)	relative viability ([4]; first compound 2.53 µM)	relative viability ([4]; first compound 8 µM)
NCI-H2009	0.329	0.331	0.376	0.346	0.241	0.345	0.303	0.234	0.175	0.8	0.749	0.726	0.655	0.433	0.912	1.05	1.15	0.954
NCI-H2023	0.55	0.439	0.326	0.135	0.0809	0.539	0.508	0.491	0.312	0.371	0.369	0.158	0.142	0.13	0.282	0.222	0.244	0.174
NCI-H2085	0.226	0.243	0.228	0.248	0.244	0.665	0.612	0.511	0.453	0.667	0.826	0.691	0.456	0.463	0.936	1.06	0.971	0.788
NCI-H2087	1	0.837	0.711	0.373	0.204	0.151	0.164	0.16	0.17	0.249	0.265	0.202	0.258	0.209	0.672	0.607	0.68	0.651
NCI-H2126	0.615	0.545	0.443	0.349	0.268	0.585	0.572	0.293	0.472	0.868	0.895	0.767	0.702	0.518	0.736	0.693	0.693	0.624
NCI-H2170	0.532	0.636	0.69	0.558	0.365	0.925	0.924	0.855	0.912	0.742	0.828	0.633	0.703	0.445	0.225	0.287	0.254	0.295
NCI-H2228	0.446	0.358	0.3	0.208	0.126	0.591	0.487	0.52	0.35	0.227	0.204	0.193	0.213	0.186	0.369	0.392	0.332	0.33
NCI-H2342	0.305	0.319	0.291	0.274	0.278	0.891	0.779	0.809	0.769	0.505	0.483	0.458	0.405	0.451	0.815	0.888	0.802	0.819
NCI-H2347	0.325	0.328	0.196	0.193	0.205	0.323	0.278	0.3	0.277	0.513	0.711	0.42	0.544	0.387	0.471	0.419	0.469	0.338
NCI-H2405	0.239	0.208	0.217	0.182	0.129	0.679	0.595	0.568	0.398	0.762	0.75	0.715	0.73	0.607	1.13	1.1	0.949	0.857
NCI-H3122	1.03	0.98	0.812	0.629	0.0849	0.238	0.19	0.274	0.244	0.404	0.47	0.341	0.364	0.289	0.202	0.201	0.198	0.193
PC-3 [JPC-3]	1.07	0.87	0.95	0.666	0.405	0.757	0.73	0.656	0.462	0.914	0.932	0.85	0.893	0.507	1.17	1.42	0.936	0.495
PC-14	0.236	0.261	0.217	0.118	0.0579	0.796	0.582	0.384	0.0529	0.593	0.651	0.566	0.486	0.307	0.14	0.13	0.117	0.101
RERF-LC-KJ	0.82	0.656	0.731	0.374	0.237	0.917	0.843	0.722	0.707	0.594	0.577	0.35	0.327	0.326	0.46	0.477	0.461	0.412
SK-LU-1	0.186	0.237	0.186	0.199	0.147	0.557	0.541	0.533	0.408	0.348	0.287	0.266	0.284	0.314	1.02	0.932	1.1	0.781
SK-MES-1	0.403	0.498	0.541	0.338	0.175	0.546	0.521	0.494	0.324	0.957	1.01	0.824	0.851	0.362	1.11	1	0.999	0.647
SW 900	0.795	0.589	0.661	0.444	0.248	0.855	0.76	0.653	0.724	0.519	0.762	0.371	0.373	0.279	0.488	0.486	0.493	0.46
